We go through 24 compounds from US10150760B2, “Compounds for use in preparing heterocyclic triazole agonists of the APJ receptor” (AMGEN INC., priority 2016, dated 2018).

Sequence of human APJ receptor (P35414 whole entry): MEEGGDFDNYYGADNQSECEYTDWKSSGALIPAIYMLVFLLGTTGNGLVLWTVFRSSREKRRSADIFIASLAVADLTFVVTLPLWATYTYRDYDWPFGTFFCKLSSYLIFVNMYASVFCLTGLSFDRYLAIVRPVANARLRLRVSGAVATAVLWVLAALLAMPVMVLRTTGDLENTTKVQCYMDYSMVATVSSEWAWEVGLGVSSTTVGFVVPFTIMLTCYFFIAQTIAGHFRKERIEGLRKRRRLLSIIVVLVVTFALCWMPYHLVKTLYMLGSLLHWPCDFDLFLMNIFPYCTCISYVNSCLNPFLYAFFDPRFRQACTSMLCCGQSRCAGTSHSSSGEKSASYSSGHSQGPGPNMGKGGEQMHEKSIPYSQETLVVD

This test addresses human APJ receptor (Homo sapiens (Human), UniProt P35414). The test can be described thus: [35S]GTPγS binding assay on membranes from CHO cells stably expressing human APJ receptor. In kind it is biochemical. The conditions noted are these: read-out: Activity hAPJ SPA EC50 IP. An outline of the steps:
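Agonist-driven [35S]GTPγS (0.2 nM) binding was measured over 90 min at room temperature on human APJ-expressing CHO membranes with bead capture, in buffer containing 3 μM GDP, 200 mM NaCl and 5 mM MgCl2 (pH 7.5). Excess unlabelled GTPγS (100 μM) gave nonspecific signal; EC50 from non-linear fits.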
In the case of `Cc1cnc([C@@H](C)[C@H](C)S(=O)(=O)Nc2nnc([C@@H]3CCCO3)n2-c2c(F)cncc2F)nc1` [Example 25.0, (2S,3R)-N-(4-(3,5-difluoro-4-pyridinyl)-5-((2S)-tetrahydro-2-furanyl)-4H-1,2,4-triazol-3-yl)-3-(5-methyl-2-pyrimidinyl)-2-butanesulfonamide], the EC50 is 130 nM.
Next, `Cc1cnc([C@@H](C)[C@H](C)S(=O)(=O)Nc2nnc([C@H]3CCCO3)n2-c2c(F)cncc2F)nc1` [Example 26.0, (2S,3R)-N-(4-(3,5-difluoro-4-pyridinyl)-5-((2R)-tetrahydro-2-furanyl)-4H-1,2,4-triazol-3-yl)-3-(5-methyl-2-pyrimidinyl)-2-butanesulfonamide]: 870 nM.
Next, `COc1cccc(OC)c1-n1c(NS(=O)(=O)[C@@H](C)[C@H](C)c2ncc(Cl)cn2)nnc1C1COC1` [Example 36.0, (2S,3R)-3-(5-chloro-2-pyrimidinyl)-N-(4-(2,6-dimethoxyphenyl)-5-(3-oxetanyl)-4H-1,2,4-triazol-3-yl)-2-butanesulfonamide]: 140 nM.
With `COc1cccc(OC)c1-n1c(NS(=O)(=O)CCc2ccc(F)cc2C#N)nnc1[C@H]1CCC(=O)N1` [Example 43.0, 2-(2-Cyano-4-fluorophenyl)-N-(4-(2,6-dimethoxyphenyl)-5-((2R)-5-oxo-2-pyrrolidinyl)-4H-1,2,4-triazol-3-yl)ethanesulfonamide] the figure was 1190 nM; with `COc1cccc(OC)c1-n1c(NS(=O)(=O)CCc2ccc(F)cc2C#N)nnc1[C@@H]1CCC(=O)N1` [Example 44.0, 2-(2-Cyano-4-fluorophenyl)-N-(4-(2,6-dimethoxyphenyl)-5-((2S)-5-oxo-2-pyrrolidinyl)-4H-1,2,4-triazol-3-yl)ethanesulfonamide], 430 nM; with `COc1cccc(OC)c1-n1c(NS(=O)(=O)[C@@H](C)[C@H](OC)c2ncc(Cl)cn2)nnc1C1CCOCC1` [Example 103.0, (1R,2S)-1-(5-chloropyrimidin-2-yl)-N-(4-(2,6-dimethoxyphenyl)-5-(tetrahydro-2H-pyran-4-yl)-4H-1,2,4-triazol-3-yl)-1-methoxypropane-2-sulfonamide], 45 nM.
Turning to `COc1ccccc1-n1c(NS(=O)(=O)[C@@H](C)[C@H](OC)c2ncc(Cl)cn2)nnc1[C@@H]1CCCO1` [Example 240.0, (1R,2S)-1-(5-chloro-2-pyrimidinyl)-1-methoxy-N-(4-(2-methoxyphenyl)-5-((2S)-tetrahydro-2-furany1)-4H-1,2,4-triazol-3-y1)-2-propanesulfonamide], the EC50 came to 1.3 nM.
With `CCc1ccccc1-n1c(NS(=O)(=O)[C@@H](C)[C@H](OC)c2ncc(Cl)cn2)nnc1[C@@H]1CCCO1` [Example 241.0, (1R,2S)-1-(5-chloro-2-pyrimidinyl)-N-(4-(2-ethylphenyl)-5-((2S)-tetrahydro-2-furanyl)-4H-1,2,4-triazol-3-y1)-1-methoxy-2-propanesulfonamide] the figure was 1.4 nM; with `CO[C@H](c1ncc(Cl)cn1)[C@H](C)S(=O)(=O)Nc1nnc([C@@H]2CCCO2)n1-c1ccccc1C` [Example 242.0, (1R,2S)-1-(5-chloro-2-pyrimidinyl)-1-methoxy-N-(4-(2-methylphenyl)-5-((2S)-tetrahydro-2-furanyl)-4H-1,2,4-triazol-3-yl)-2-propanesulfonamide], 8.7 nM; with `CO[C@H](c1ncc(Cl)cn1)[C@H](C)S(=O)(=O)Nc1nnc([C@@H]2CCCO2)n1-c1ccccc1Cl` [Example 243.0, (1R,2S)-N-(4-(2-chlorophenyl)-5-((2S)-tetrahydro-2-furanyl)-4H-1,2,4-triazol-3-yl)-1-(5-chloro-2-pyrimidinyl)-1-methoxy-2-propanesulfonamide], 5.6 nM.
With `CO[C@H](c1ncc(Cl)cn1)[C@H](C)S(=O)(=O)Nc1nnc([C@@H]2CCCO2)n1-c1ccccc1F` [Example 244.0, (1R,2S)-1-(5-chloro-2-pyrimidinyl)-N-(4-(2-fluorophenyl)-5-((2S)-tetrahydro-2-furanyl)-4H-1,2,4-triazol-3-yl)-1-methoxy-2-propanesulfonamide], the EC50 was 21 nM.
As to `COCC(COC)n1c(NS(=O)(=O)[C@@H](C)[C@H](OC)c2ncc(Cl)cn2)nnc1[C@H]1CCCO1` [Example 330.0, (1R,2S)-1-(5-chloro-2-pyrimidinyl)-N-(4-(1,3-dimethoxy-2-propanyl)-5-((2R)-tetrahydro-2-furanyl)-4H-1,2,4-triazol-3-yl)-1-methoxy-2-propanesulfonamide], the EC50 amounted to 160 nM.
Regarding `COCC(COC)n1c(NS(=O)(=O)[C@@H](C)[C@H](OC)c2ncc(Cl)cn2)nnc1[C@@H]1CCCO1` [Example 332.0, (1R,2S)-1-(5-chloro-2-pyrimidinyl)-N-(4-(1,3-dimethoxy-2-propanyl)-5-((2S)-tetrahydro-2-furanyl)-4H-1,2,4-triazol-3-yl)-1-methoxy-2-propanesulfonamide], the 50% effective concentration (EC50) came out at 14 nM.
As to `COc1cccc(OC)c1-n1c(NS(=O)(=O)CCc2ccc(F)cc2C#N)nnc1[C@@H]1CCOC1` [Example 345.0, (S)-2-(2-cyano-4-fluorophenyl)-N-(4-(2,6-dimethoxyphenyl)-5-(tetrahydrofuran-3-yl)-4H-1,2,4-triazol-3-yl) ethanesulfonamide], the concentration giving a half-maximal response (EC50) was found to be 100 nM.
With `COc1cccc(OC)c1-n1c(NS(=O)(=O)CCc2ncc(Cl)cn2)nnc1[C@@H]1CCOC1` [Example 386.0, 2-(5-chloro-2-pyrimidinyl)-N-(4-(2,6-dimethoxyphenyl)-5-((3S)-tetrahydro-3-furanyl)-4H-1,2,4-triazol-3-yl)ethanesulfonamide] the figure was 81 nM; with `COc1cccc(OC)c1-n1c(NS(=O)(=O)CCc2ncc(Cl)cn2)nnc1[C@@H]1CCCO1` [Example 388.0, 2-(5-chloro-2-pyrimidinyl)-N-(4-(2,6-dimethoxyphenyl)-5-((2S)-tetrahydro-2-furanyl)-4H-1,2,4-triazol-3-yl)ethanesulfonamide], 9.8 nM.
For `COc1cccc(OC)c1-n1c(NS(=O)(=O)CCc2ncc(Cl)cn2)nnc1[C@H]1CCCO1` [Example 389.0, 2-(5-chloro-2-pyrimidinyl)-N-(4-(2,6-dimethoxyphenyl)-5-((2R)-tetrahydro-2-furanyl)-4H-1,2,4-triazol-3-yl)ethanesulfonamide], the EC50 was determined as 96 nM.
Next, “(1R,2)S-1-(5-chloropyrimidin-2-yl)-N-(5-((S)-5,5-dimethyltetrahydrofuran-2-yl)-4-(tetrahydro-2H-pyran-4-yl)-4H-1,2,4-triazol-3-yl)-1-methoxypropane-2-sulfonamide or (1R,2S)-1-(5-chloropyrimidin-2-yl)-N-(5-((R)-5,5-dimethyltetrahydrofuran-2-yl)-4-(tetrahydro-2H-pyran-4-yl)-4H-1,2,4-triazol-3-yl)-1-methoxypropane-2-sulfonamide [Example 222.0]”: 740 nM; “(1R,2)S-N-(4-(2,6-dimethoxyphenyl)-5-((R)-1,4-dioxan-2-yl)-4H-1,2,4-triazol-3-yl)-1-methoxy-1-(5-methylpyrimidin-2-yl)propane-2-sulfonamide or (1R,2S)-N-(4-(2,6-dimethoxyphenyl)-5-((S)-1,4-dioxan-2-yl)-4H-1,2,4-triazol-3-yl)-1-methoxy-1-(5-methylpyrimidin-2-yl)propane-2-sulfonamide [Example 201.0]”: 31 nM.
As for “(1R,2S)-1-(5-chloro-2-pyridinyl)-N-(4-(1,3-dimethoxy-2-propanyl)-5-((2R,5R)-5-methyltetrahydro-2-furanyl)-4H-1,2,4-triazol-3-yl)-1-methoxy-2-propanesulfonamide or (1R,2S)-1-(5-chloro-2-pyridinyl)-N-(4-(1,3-dimethoxy-2-propanyl)-5-((2S,5S)-5-methyltetrahydro-2-furanyl)-4H-1,2,4-triazol-3-yl)-1-methoxy-2-propanesulfonamide [Example 380.0]”, the EC50 is 60 nM.
With “(1R,2S)-1-(5-chloro-2-pyridinyl)-N-(4-(1,3-dimethoxy-2-propanyl)-5-((2R,5R)-5-methyltetrahydro-2-furanyl)-4H-1,2,4-triazol-3-yl)-1-methoxy-2-propanesulfonamide or (1R,2S)-1-(5-chloro-2-pyridinyl)-N-(4-(1,3-dimethoxy-2-propanyl)-5-((2S,5S)-5-methyltetrahydro-2-furanyl)-4H-1,2,4-triazol-3-yl)-1-methoxy-2-propanesulfonamide [Example 381.0]” the figure was 2.1 nM.
With “(1R,2S)-1-(5-chloro-2-pyrimidinyl)-N-(4-(1,3-dimethoxy-2-propanyl)-5-((2R)-5,5-dimethyltetrahydro-2-furanyl)-4H-1,2,4-triazol-3-yl)-1-methoxy-2-propanesulfonamide or (1R,2S)-1-(5-chloro-2-pyrimidinyl)-N-(4-(1,3-dimethoxy-2-propanyl)-5-((2S)-5,5-dimethyltetrahydro-2-furanyl)-4H-1,2,4-triazol-3-yl)-1-methoxy-2-propanesulfonamide [Example 307.0]” the figure was 14 nM.
With “(1R,2S)-1-(5-chloro-2-pyrimidinyl)-N-(4-(1,3-dimethoxy-2-propanyl)-5-((2R)-5,5-dimethyltetrahydro-2-furanyl)-4H-1,2,4-triazol-3-yl)-1-methoxy-2-propanesulfonamide or (1R,2S)-1-(5-chloro-2-pyrimidinyl)-N-(4-(1,3-dimethoxy-2-propanyl)-5-((2S)-5,5-dimethyltetrahydro-2-furanyl)-4H-1,2,4-triazol-3-yl)-1-methoxy-2-propanesulfonamide [Example 308.0]” the figure was 410 nM; with “(1R,2S)-1-(5-chloro-2-pyrimidinyl)-N-(4-(1,3-dimethoxy-2-propanyl)-5-((2S,5S)-5-methyltetrahydro-2-furanyl)-4H-1,2,4-triazol-3-yl)-1-methoxy-2-propanesulfonamide or (1R,2S)-1-(5-chloro-2-pyrimidinyl)-N-(4-(1,3-dimethoxy-2-propanyl)-5-((2R,5R)-5-methyltetrahydro-2-furanyl)-4H-1,2,4-triazol-3-yl)-1-methoxy-2-propanesulfonamide [Example 252.0]”, 250 nM.
